For series [1], the system named is chronic EAE in the Biozzi mouse model. The experiment in a line: NA:NA and NA:GLA in ethyl oleate in chronic relapsing EAE (Example 7). The format is in vivo. The note with it: Biozzi mouse; ethyl oleate vehicle alone, compared to undosed. Here is the method: Male Biozzi mice weighing 30-35 g were injected in each flank with 0.15 mL of an emulsion containing lyophilised mouse spinal cord, phosphate buffered saline and incomplete Freund's adjuvant supplemented with Mycobacterium butyricum and Mycobacterium tuberculosis H37Ra.
1: Partial Flaccid Tail (PFT), 2: Complete Flaccid Tail (CFT), 3: Impaired Righting Reflex (IRR), 4: Ataxic Gait (AG), 5: Hind Limb Hypotonia (HLH), 6: Partial Hind Limb Paralysis (PHLP), 7: Complete Hind Limb Paralysis (CHLP), 8: Moribund (M), 9: Dead (D).

Series [2] deals with acute EAE in the Lewis rat. The experiment in a line: Prophylactic effect of glyceryl trinervonate on acute EAE (Comparative Example). The format is in vivo. How it is done:
Prophylactic effects of glyceryl trinervonate (GTN, Description 4) were assessed on acute EAE in the Lewis rat. Induction and Assessment of EAE was as for Example 4. Dosing regime involved oral administration in Miglyol 810 five days prior to inoculation and for 20 days post-inoculation. (Refer to Example 8 regarding insignificance of use of PBS or Miglyol vehicles).

The nature of series [3]: Nervonic acid composition of total polar lipid from rat brain (Example 9). The class given is in vivo. Particulars: after Example 6 treatments; NA:GLA at both low and high doses. Here is the method:
Upon termination of certain biological evaluations, rat or mice brains were extracted and the fatty acid composition of total polar lipids from rat/mouse brain was determined.
Biological material was sent for analysis to Dr J. Hendersen at the University of Stirling, Institute of Aquaculture, Scotland. Analyses were carried out on two batches of experiments (detailed respectively in Example 6 and Example 7).

For series [4], the system named is neurological EAE in the Lewis rat.
Experimental: Male Lewis rats, weighing 230-280 g on the day of inoculation, were injected in each rear footpad with 0.1 ml of an emulsion containing equal parts of guinea pig spinal cord; phosphate buffered saline (PBS) and incomplete Freund's adjuvant supplemented with 10 mg/ml Mycobacterium tuberculosis H37Ra.
Animals were weighed daily and assessed for neurological disease from day 7 post-inoculation (PI). Rats displaying symptoms of EAE were scored as follows: 1: flaccid tail (FT), 2: hind limb hypotonia (HLH), 3: partial hind limb paralysis (PHLP), 4: complete hind limb paralysis (CHLP), 5: moribund or dead.
NA:GLA (neat oil) was orally administered 5 days prior to inoculation and continued for 25 days PI, at a dose of 750 mg/kg body weight/day and 1000 mg/kg body weight/day. NA:DHA (neat oil) was given by an identical dosing regime at a dose of 500 mg/kg body weight/day. Control-sensitised animals received PBS vehicle or were undosed. Undosed, vehicle and low dose NA:GLA treatments contained 7 animals. Four rats received high dose NA:GLA and 3 rats were dosed with NA:DHA.

Regarding `CCCCCCCC/C=C\CCCCCCCC(=O)OCC` [ethyl oleate], the “effect of the vehicle on incidence and severity of chronic relapsing EAE” value in series [1] was “significantly reduced the incidence and severity of the acute and relapsing phases”.

On to `CCCCCCCC/C=C/CCCCCCCCCCCCCC(=O)OCC(COC(=O)CCCCCCCCCCCCC/C=C/CCCCCCCC)OC(=O)CCCCCCCCCCCCC/C=C/CCCCCCCC` [GTN, Glyceryl Trinervonate], for which, in series [2] (compared to vehicle or undosed groups), the “onset and loss of symptoms together with duration of the disease” value was “not significantly different from vehicle or undosed groups”. Further, the “adverse effect (body weight gain until day 10)” value in series [2] (dietary administered) is recorded as “did not induce any major adverse effect”. Moreover, in series [2] (oral in Miglyol 810), the “effect on parameters associated with neurological deficits in EAE-diseased rats” value is reported as “did not significantly affect any parameter”. Besides, in series [2] (oral in Miglyol 810, 5 days prior to inoculation and 20 days PI, n=10), the “No. of diseased rats” value is given as 10/10. Also, in series [2] (oral in Miglyol 810, n=10), the “CFT: Percentage of rats in the group” value is recorded as 100%, the “CHLP: Percentage of rats in the group” value was 40%, the “HLH: Percentage of rats in the group” value came to 90% and the “MD: Percentage of rats in the group” value was found to be 0%. Also, in series [2] (oral in Miglyol 810, n=10), the “Mean day of symptom loss” value stood at 17.0 ± 1.2 days, the “Mean day of symptom onset” value was 11.2 ± 1.2 days, the “Mean duration of symptoms” value is 5.8 ± 1.1 days and the Number of dead was 0/10. Further, in series [2] (oral in Miglyol 810, n=10), the “PFT: Percentage of rats in the group” value was found to be 100% and the “PHLP: Percentage of rats in the group” value stood at 70%.

In the case of `CCC=CCC=CCC=CCC=CCC=CC/C=C\CCC(=O)OCCCOC(=O)CCCCCCCCCCCCC/C=C\CCCCCCCC` [NA:DHA, 1-(z-15-tetracosenoyloxy)-3-(z-4,7,10,13,16,19-docosahexaenoyloxy)propane], in series [3], the “NA levels in rat brain lipids compared to normal, undosed and vehicle treated animals” value is “did not enhance the NA levels”. In addition, in series [4] (500 mg/kg/day), the “CHLP: Number of animals showing symptoms/total” value was 3/3, the “FT: Number of animals showing symptoms/total” value is on record as 3/3, the “HLH: Number of animals showing symptoms/total” value is on record as 3/3 and the “PHLP: Number of animals showing symptoms/total” value is 3/3. Further, in series [4] (500 mg/kg/day), the daily score result was “enhanced compared to levels noted for control and NA:GLA-treated animals”; the “development of CHLP” value was 11.3±1.3; the “effect on neurological symptoms” value is “intensified neurological symptoms”. Moreover, in series [4] (neat oil oral 500 mg/kg/day), the “Mean day of final symptom loss (±SD)” value is 19.3 ± 1.2 days, the “Mean day of symptom onset (±SD)” value was 10.3 ± 0.6 days and the Number of dead/total is on record as 0/3. Moreover, the Number diseased/total in series [4] (neat oil oral 500 mg/kg/day, 5 days prior to inoculation and 25 days PI) is on record as 3/3.

Values taken from US6664406B1, “Nervonic acid derivatives, their preparation and use” (Croda International PLC, priority 1999, dated 2003).
